Test results taken from patent US9084828B2, “Oligomer-protein tyrosine kinase inhibitor conjugates” (Nektar Therapeutics, priority 2009, dated 2015).

Tests used:
Type in all cases: biochemical
FGFR2(N549H) = FGFR2(N549H) (Homo sapiens, UniProt P21802, N549H); assay: Activity against various protein tyrosine kinases: FGFR2(N549H)
FGFR2 = FGFR2 (Homo sapiens, UniProt P21802); assay: Activity against various protein tyrosine kinases: FGFR2
AurC = biological target: T1, AurC (Homo sapiens, UniProt Q9UQB9); assay: Activity against various protein tyrosine kinases: AurC
T1 sequence (Q9UQB9 1-309): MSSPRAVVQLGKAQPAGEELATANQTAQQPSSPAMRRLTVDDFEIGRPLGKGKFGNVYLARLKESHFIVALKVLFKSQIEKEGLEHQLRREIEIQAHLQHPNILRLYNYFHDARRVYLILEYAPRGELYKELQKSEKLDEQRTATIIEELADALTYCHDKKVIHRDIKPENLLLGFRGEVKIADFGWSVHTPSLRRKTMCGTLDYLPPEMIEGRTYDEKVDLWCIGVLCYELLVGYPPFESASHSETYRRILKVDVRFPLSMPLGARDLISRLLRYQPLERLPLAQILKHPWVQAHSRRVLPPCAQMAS

RSK1 = RSK1 (Homo sapiens, UniProt Q15418); assay: Activity against various protein tyrosine kinases: RSK1
FYN = FYN (Homo sapiens, UniProt P06241); assay: Activity against various protein tyrosine kinases: FYN
PKCz = biological target: T2, PKCz (Homo sapiens, UniProt Q05513); assay: Activity against various protein tyrosine kinases: PKCz
T2 sequence (Q05513 1-592): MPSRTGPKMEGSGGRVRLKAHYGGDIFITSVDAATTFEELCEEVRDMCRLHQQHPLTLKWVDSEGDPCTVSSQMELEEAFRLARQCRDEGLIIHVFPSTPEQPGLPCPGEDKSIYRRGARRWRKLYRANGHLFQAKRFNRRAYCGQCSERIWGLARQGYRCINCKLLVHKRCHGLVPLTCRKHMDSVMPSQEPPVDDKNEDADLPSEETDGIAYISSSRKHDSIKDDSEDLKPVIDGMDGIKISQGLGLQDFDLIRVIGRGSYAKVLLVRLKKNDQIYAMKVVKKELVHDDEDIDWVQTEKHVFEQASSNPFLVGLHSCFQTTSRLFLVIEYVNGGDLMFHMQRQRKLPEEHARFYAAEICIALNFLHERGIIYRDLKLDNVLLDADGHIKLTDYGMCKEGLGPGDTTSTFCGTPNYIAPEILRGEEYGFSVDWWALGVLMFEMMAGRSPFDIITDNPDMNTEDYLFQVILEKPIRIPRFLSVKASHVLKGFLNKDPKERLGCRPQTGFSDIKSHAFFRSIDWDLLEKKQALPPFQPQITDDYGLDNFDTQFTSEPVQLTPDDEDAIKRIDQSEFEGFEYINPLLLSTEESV

LYN = LYN (Homo sapiens, UniProt P07948); assay: Activity against various protein tyrosine kinases: LYN
FGFR1 = FGFR1 (Homo sapiens, UniProt P11362); assay: Activity against various protein tyrosine kinases: FGFR1
Method: (§1) Using techniques know those of ordinary skill in the art, compounds were tested for activity against various protein tyrosine kinases.

BTK = BTK (Homo sapiens, UniProt Q06187); assay: Activity against various protein tyrosine kinases: BTK
Method: as §1

TSSK1 = biological target: T3, TSSK1 (Homo sapiens, UniProt Q9BXA7); assay: Activity against various protein tyrosine kinases: TSSK1
T3 sequence (Q9BXA7 1-367): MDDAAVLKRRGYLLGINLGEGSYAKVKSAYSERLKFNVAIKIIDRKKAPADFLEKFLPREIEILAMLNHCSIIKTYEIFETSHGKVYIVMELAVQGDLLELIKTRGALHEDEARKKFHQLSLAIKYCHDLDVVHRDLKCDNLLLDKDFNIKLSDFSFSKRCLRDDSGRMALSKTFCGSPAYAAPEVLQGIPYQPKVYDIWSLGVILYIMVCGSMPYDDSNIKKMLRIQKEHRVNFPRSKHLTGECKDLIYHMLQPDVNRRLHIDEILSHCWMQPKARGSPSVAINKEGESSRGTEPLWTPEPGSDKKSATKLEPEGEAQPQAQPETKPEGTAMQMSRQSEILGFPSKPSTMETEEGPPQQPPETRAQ

EGFR = EGFR (Homo sapiens, UniProt P00533); assay: Activity against various protein tyrosine kinases: EGFR
INSR = INSR (Homo sapiens, UniProt P06213); assay: Activity against various protein tyrosine kinases: INSR
ABL = ABL (Homo sapiens, UniProt P00519); assay: Activity against various protein tyrosine kinases: ABL; set-up: purchased MILLIPORE 14-529
Method: as §1

AKT2 = AKT2 (Homo sapiens, UniProt P31751); assay: Activity against various protein tyrosine kinases: AKT2
PDGFR_beta = PDGFR_beta (Homo sapiens, UniProt P09619); assay: Activity against various protein tyrosine kinases: PDGFR_beta
HCK = HCK (Homo sapiens, UniProt P08631); assay: Activity against various protein tyrosine kinases: HCK
Erk1 = Erk1 (Homo sapiens, UniProt P27361); assay: Activity against various protein tyrosine kinases: Erk1
CHK2 = CHK2 (Homo sapiens, UniProt O96017); assay: Activity against various protein tyrosine kinases: CHK2
Fer = Fer (Homo sapiens, UniProt P16591); assay: Activity against various protein tyrosine kinases: Fer
PKA = PKA (Homo sapiens, UniProt P17612); assay: Activity against various protein tyrosine kinases: PKA
Erk2 = Erk2 (Homo sapiens, UniProt P28482); assay: Activity against various protein tyrosine kinases: Erk2

Chain of ABL (P00519 whole entry): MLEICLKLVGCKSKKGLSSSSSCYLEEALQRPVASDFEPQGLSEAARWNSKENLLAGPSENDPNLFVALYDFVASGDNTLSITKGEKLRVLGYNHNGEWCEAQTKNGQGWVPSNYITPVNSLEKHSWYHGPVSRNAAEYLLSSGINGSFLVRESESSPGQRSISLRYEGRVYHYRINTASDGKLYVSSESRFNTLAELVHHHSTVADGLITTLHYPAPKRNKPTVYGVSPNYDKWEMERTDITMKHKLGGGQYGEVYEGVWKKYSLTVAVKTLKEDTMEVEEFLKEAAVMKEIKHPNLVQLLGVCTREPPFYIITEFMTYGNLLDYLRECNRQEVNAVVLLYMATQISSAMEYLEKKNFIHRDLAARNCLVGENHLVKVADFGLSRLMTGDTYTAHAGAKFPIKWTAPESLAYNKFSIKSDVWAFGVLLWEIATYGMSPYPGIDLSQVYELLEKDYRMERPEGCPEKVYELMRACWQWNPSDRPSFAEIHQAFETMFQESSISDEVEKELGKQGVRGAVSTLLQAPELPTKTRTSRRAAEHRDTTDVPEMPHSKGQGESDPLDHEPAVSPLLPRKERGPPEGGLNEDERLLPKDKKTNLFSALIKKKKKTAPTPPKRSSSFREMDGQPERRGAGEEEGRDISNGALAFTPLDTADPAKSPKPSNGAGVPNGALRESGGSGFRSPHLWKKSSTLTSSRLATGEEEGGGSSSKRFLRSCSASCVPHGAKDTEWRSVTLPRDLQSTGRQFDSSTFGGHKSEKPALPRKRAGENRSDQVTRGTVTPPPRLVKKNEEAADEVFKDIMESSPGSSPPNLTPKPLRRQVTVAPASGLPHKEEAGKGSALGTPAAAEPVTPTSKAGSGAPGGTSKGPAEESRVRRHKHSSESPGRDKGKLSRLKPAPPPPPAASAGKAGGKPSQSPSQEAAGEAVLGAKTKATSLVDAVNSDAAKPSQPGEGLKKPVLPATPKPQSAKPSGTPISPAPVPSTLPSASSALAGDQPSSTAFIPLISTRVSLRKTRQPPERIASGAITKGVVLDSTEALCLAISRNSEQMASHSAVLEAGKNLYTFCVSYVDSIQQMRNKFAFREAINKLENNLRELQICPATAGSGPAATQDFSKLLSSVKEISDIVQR
Chain of BTK (Q06187 whole entry, species assumed): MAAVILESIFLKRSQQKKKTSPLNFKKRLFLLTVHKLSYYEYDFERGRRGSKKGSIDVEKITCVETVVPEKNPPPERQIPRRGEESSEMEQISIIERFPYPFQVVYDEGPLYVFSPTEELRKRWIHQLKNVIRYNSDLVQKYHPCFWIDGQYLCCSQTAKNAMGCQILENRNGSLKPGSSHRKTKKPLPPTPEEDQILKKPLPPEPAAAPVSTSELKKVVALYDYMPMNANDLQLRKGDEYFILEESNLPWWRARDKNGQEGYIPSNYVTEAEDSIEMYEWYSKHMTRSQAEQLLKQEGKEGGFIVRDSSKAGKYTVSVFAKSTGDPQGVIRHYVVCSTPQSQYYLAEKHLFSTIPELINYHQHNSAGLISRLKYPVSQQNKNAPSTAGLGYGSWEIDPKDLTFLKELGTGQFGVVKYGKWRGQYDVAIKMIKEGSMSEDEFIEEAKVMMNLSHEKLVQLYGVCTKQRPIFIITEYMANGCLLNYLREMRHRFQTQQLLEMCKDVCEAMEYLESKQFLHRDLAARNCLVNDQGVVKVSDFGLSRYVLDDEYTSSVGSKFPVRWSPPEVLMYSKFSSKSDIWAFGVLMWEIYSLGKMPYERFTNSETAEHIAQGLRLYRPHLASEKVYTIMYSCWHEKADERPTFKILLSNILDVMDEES
Chain of HCK (P08631 whole entry, species assumed): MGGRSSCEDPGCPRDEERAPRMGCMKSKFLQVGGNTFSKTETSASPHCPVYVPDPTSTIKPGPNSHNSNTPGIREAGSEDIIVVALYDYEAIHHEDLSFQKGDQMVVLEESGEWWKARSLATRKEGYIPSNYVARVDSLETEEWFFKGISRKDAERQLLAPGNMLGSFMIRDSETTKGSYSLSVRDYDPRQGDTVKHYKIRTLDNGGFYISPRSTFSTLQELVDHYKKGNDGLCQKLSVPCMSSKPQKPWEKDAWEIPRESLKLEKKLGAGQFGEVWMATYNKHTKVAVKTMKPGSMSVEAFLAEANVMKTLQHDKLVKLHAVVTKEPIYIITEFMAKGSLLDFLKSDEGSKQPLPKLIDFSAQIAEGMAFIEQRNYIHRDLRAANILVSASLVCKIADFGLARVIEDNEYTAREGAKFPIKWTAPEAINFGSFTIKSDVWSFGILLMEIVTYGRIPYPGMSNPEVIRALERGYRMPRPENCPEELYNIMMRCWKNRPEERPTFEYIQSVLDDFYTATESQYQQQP
Chain of CHK2 (O96017 whole entry, species assumed): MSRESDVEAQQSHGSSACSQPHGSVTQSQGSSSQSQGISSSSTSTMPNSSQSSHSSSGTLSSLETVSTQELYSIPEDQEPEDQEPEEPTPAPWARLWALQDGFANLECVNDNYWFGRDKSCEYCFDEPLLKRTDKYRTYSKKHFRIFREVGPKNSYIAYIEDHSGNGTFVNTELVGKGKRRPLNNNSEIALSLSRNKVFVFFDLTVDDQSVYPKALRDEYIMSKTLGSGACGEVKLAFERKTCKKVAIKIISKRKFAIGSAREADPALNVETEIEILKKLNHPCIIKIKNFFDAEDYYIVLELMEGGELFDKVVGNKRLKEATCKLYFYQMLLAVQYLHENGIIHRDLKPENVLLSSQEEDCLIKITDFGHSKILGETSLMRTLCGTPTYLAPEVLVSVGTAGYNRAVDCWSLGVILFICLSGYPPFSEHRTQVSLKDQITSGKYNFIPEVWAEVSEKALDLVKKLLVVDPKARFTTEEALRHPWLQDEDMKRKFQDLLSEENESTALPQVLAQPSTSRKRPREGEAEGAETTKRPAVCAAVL
Chain of FGFR2 (P21802 22-821, species assumed): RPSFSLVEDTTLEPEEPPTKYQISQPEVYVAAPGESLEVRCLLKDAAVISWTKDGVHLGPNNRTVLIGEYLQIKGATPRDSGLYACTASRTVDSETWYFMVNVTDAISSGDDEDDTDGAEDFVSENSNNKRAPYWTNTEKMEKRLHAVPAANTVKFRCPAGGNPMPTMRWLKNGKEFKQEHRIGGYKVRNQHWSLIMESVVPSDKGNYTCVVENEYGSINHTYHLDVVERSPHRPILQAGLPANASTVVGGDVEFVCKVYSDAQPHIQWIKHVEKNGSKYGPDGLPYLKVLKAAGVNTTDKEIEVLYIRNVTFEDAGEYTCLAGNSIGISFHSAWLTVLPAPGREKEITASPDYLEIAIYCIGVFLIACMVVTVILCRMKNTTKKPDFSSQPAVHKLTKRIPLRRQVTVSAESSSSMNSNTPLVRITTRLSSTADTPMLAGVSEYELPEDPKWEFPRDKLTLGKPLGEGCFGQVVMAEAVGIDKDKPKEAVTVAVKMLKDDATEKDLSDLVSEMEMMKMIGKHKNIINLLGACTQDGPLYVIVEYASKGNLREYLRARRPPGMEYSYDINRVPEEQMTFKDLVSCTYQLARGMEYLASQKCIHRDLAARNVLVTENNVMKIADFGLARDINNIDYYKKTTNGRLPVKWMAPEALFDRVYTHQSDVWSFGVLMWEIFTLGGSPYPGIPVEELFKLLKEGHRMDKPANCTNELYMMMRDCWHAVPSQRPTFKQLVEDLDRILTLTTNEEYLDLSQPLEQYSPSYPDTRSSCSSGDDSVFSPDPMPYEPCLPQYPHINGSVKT
Chain of RSK1 (Q15418 whole entry, species assumed): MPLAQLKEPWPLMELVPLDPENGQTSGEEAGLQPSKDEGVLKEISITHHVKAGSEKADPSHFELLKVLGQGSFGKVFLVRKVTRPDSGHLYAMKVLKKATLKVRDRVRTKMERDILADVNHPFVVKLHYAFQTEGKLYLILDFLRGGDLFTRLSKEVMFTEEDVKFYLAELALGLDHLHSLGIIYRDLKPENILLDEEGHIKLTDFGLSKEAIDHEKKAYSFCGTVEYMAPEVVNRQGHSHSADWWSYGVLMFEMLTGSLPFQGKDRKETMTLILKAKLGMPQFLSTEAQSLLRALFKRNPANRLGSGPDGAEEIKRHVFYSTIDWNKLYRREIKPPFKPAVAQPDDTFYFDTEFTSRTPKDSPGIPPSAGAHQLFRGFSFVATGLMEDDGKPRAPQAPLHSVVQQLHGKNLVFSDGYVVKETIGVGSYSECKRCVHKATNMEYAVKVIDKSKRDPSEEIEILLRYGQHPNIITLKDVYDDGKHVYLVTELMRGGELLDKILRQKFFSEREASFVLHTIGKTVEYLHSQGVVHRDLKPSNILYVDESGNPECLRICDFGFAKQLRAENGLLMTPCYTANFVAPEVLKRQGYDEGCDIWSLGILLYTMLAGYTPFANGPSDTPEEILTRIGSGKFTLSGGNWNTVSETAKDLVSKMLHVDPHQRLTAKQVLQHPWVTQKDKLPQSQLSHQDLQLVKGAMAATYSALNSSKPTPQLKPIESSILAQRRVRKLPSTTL
Chain of FGFR2(N549H) (P21802 22-821 N549H, species assumed): as the sequence (P21802 22-821, species assumed) above, with N528H counted along it
Chain of Erk1 (P27361 whole entry, species assumed): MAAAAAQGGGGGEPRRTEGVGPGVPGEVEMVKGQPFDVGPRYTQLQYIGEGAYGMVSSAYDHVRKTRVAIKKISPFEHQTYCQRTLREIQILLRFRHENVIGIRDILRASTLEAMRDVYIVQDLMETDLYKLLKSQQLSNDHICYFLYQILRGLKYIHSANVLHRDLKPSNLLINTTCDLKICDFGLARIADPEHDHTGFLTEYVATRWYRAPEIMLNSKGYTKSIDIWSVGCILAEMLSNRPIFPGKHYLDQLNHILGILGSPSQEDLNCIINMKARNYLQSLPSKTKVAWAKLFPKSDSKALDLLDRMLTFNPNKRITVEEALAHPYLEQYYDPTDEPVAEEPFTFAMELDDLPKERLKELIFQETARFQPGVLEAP

COCCOCCOCCOCCOCCOCCOCCNC(=O)OCCN1CCN(c2cc(Nc3ncc(C(=O)Nc4c(C)cccc4Cl)s3)nc(C)n2)CC1 [mPEG7-NHCOO-Dasatinib]
% Inhibition at 10 nM (FGFR2(N549H)): 5% | % Inhibition at 1 μM (FGFR2(N549H)): 63% | % Inhibition at 10 nM (FGFR2): 5% | % Inhibition at 1 μM (FGFR2): 35% | % Inhibition at 10 nM (AurC): 0% | % Inhibition at 1 μM (AurC): 2% | % Inhibition at 10 nM (RSK1): 0% | % Inhibition at 1 μM (RSK1): 4% | % Inhibition at 10 nM (FYN): 98% | % Inhibition at 1 μM (FYN): 98% | % Inhibition at 10 nM (PKCz): 5% | % Inhibition at 1 μM (PKCz): −9% | % Inhibition at 10 nM (LYN): 98% | % Inhibition at 1 μM (LYN): 98% | % Inhibition at 10 nM (FGFR1): 2% | % Inhibition at 1 μM (FGFR1): 3% | % Inhibition at 10 nM (BTK): 99% | % Inhibition at 1 μM (BTK): 100% | % Inhibition at 10 nM (TSSK1): −3% | % Inhibition at 1 μM (TSSK1): −5% | % Inhibition at 10 nM (EGFR): 6% | % Inhibition at 1 μM (EGFR): 62% | % Inhibition at 10 nM (INSR): 2% | % Inhibition at 1 μM (INSR): 3% | % Inhibition at 10 nM (ABL): 99% | % Inhibition at 1 μM (ABL): 99% | % Inhibition at 10 nM (AKT2): 3% | % Inhibition at 1 μM (AKT2): 3% | % Inhibition at 10 nM (PDGFR_beta): 60% | % Inhibition at 1 μM (PDGFR_beta): 100% | % Inhibition at 10 nM (HCK): 98% | % Inhibition at 1 μM (HCK): 99% | % Inhibition at 10 nM (Erk1): 3% | % Inhibition at 1 μM (Erk1): 4% | % Inhibition at 10 nM (CHK2): 2% | % Inhibition at 1 μM (CHK2): 1% | % Inhibition at 10 nM (Fer): −2% | % Inhibition at 1 μM (Fer): 5% | % Inhibition at 10 nM (PKA): 0% | % Inhibition at 1 μM (PKA): 2% | % Inhibition at 10 nM (Erk2): 3% | % Inhibition at 1 μM (Erk2): 2%

COCCOCCOCCNC(=O)OCCN1CCN(c2cc(Nc3ncc(C(=O)Nc4c(C)cccc4Cl)s3)nc(C)n2)CC1 [mPEG3-NHCOO-Dasatinib]
% Inhibition at 10 nM (FGFR2(N549H)): 7% | % Inhibition at 1 μM (FGFR2(N549H)): 75% | % Inhibition at 10 nM (FGFR2): −2% | % Inhibition at 1 μM (FGFR2): 38% | % Inhibition at 10 nM (AurC): −1% | % Inhibition at 1 μM (AurC): 0% | % Inhibition at 10 nM (RSK1): 2% | % Inhibition at 1 μM (RSK1): 0% | % Inhibition at 10 nM (FYN): 98% | % Inhibition at 1 μM (FYN): 99% | % Inhibition at 10 nM (PKCz): −12% | % Inhibition at 1 μM (PKCz): −13% | % Inhibition at 10 nM (LYN): 99% | % Inhibition at 1 μM (LYN): 99% | % Inhibition at 10 nM (FGFR1): 11% | % Inhibition at 1 μM (FGFR1): −3% | % Inhibition at 10 nM (BTK): 99% | % Inhibition at 1 μM (BTK): 100% | % Inhibition at 10 nM (TSSK1): −1% | % Inhibition at 1 μM (TSSK1): 0% | % Inhibition at 10 nM (EGFR): 3% | % Inhibition at 1 μM (EGFR): 76% | % Inhibition at 10 nM (INSR): 1% | % Inhibition at 1 μM (INSR): −1% | % Inhibition at 10 nM (ABL): 99% | % Inhibition at 1 μM (ABL): 99% | % Inhibition at 10 nM (AKT2): 9% | % Inhibition at 1 μM (AKT2): 7% | % Inhibition at 10 nM (PDGFR_beta): 48% | % Inhibition at 1 μM (PDGFR_beta): 99% | % Inhibition at 10 nM (HCK): 98% | % Inhibition at 1 μM (HCK): 98% | % Inhibition at 10 nM (Erk1): 3% | % Inhibition at 1 μM (Erk1): 2% | % Inhibition at 10 nM (CHK2): 1% | % Inhibition at 1 μM (CHK2): 11% | % Inhibition at 10 nM (Fer): −4% | % Inhibition at 1 μM (Fer): 5% | % Inhibition at 10 nM (PKA): 3% | % Inhibition at 1 μM (PKA): 0% | % Inhibition at 10 nM (Erk2): 6% | % Inhibition at 1 μM (Erk2): 11%
